From patent US7429582B2, “Dihydro[1,4]oxazino[2,3,4-hi]indazole derivatives as 5-hydroxytryptamine-6 ligands and use thereof in the treatment of attention deficit disorders” (Wyeth, priority 2006, dated 2008) come the findings set out here.

Counter-ions that a name gives are not always drawn.

For the assay, the target named is T1, human cloned 5-HT6 receptors (Homo sapiens, UniProt P50406).
T1 construct: expressed in transfected cells; host or cells: Hela cells
T1 sequence (P50406 whole entry): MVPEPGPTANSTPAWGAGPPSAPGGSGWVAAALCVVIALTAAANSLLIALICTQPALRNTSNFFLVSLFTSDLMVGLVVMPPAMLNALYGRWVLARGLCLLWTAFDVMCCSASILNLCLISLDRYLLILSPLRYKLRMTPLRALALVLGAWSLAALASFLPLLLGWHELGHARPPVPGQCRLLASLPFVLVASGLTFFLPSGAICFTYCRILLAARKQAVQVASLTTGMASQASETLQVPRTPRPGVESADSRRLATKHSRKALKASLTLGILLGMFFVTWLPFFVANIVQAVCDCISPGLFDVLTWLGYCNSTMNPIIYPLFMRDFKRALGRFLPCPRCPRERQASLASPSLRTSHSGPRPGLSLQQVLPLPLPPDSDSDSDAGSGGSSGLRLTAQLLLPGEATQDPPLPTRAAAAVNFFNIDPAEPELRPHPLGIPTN
The conditions noted are these: [3H]-LSD 3.0 nM, 120 minutes at room temperature, Hela cell membranes; read-out: 5-HT6 Binding Ki.
Protocol: This operation was repeated.
The reaction was allowed to proceed in the dark for 120 minutes at room temperature, at which time, the bound ligand-receptor complex was filtered off on a 96 well unifilter with a Packard Filtermate® 196 Harvester. The bound complex caught on the filter disk was allowed to air dry and the radioactivity is measured in a Packard TopCount® equipped with six photomultiplier detectors, after the addition of 40.0 μl Microscint®-20 scintillant to each shallow well. The unifilter plate was heat-sealed and counted in a PackardTopCount® with a tritium efficiency of 31.0%.
Binding in the presence of varying concentrations of test compound was expressed as a percentage of specific binding in the absence of test compound. The results were plotted as log % bound versus log concentration of test compound. […] A linear regression line of data points was plotted, from which the IC50 value is determined and the Ki value is determined based upon the following equation: Ki=IC50/(1+L/KD) where L was the concentration of the radioactive ligand used and KD is the dissociation constant of the ligand for the receptor, both expressed in nM.
As to `CN(C)CC1Cn2nc(S(=O)(=O)c3cccc4ccccc34)c3cccc(c32)O1` (stereo not drawn) [Example 6, N,N-dimethyl-1-[6-(1-naphthylsulfonyl)-2,3-dihydro[1,4]oxazino[2,3,4-hi]indazol-2-yl]methanamine Hydrochloride], the Ki (as a rule, a dissociation constant, usually derived from enzyme kinetics or from competition with a known ligand) was determined as 1.6 nM.

As to `O=S(=O)(c1cccc2ccccc12)c1nn2c3c(cccc13)OC(CN1CCCCC1)C2` (stereo not drawn) [Example 8, 6-(1-Naphthylsulfonyl)-2-(piperidin-1-1ylmethyl)-2,3-dihydro[1,4]oxazino[2,3,4-hi]indazole Hydrochloride], the Ki worked out at 160 nM.

In the case of `O=S(=O)(c1cccc2ccccc12)c1nn2c3c(cccc13)OC(CN1CCCC1)C2` (stereo not drawn) [Example 7, 6-(1-Naphthylsulfonyl)-2-(Pyrrolidin-1-1ylmethyl)-2,3-dihydro[1,4]oxazino[2,3,4-hi]indazole Hydrochloride], the inhibition constant (Ki) was found to be 3 nM.
